# US6956030B2, “Use of mometasone furoate for treating upper airway diseases” (Schering Corporation, priority 1994, dated 2005)
# Tests used:
# [1] = tested on: patients with seasonal allergic rhinitis; assay: Dose ranging safety and efficacy study, aqueous nasal spray, 4 weeks; type: in vivo; settings: nasal spray 50, 100, 200, 800 mcg/day
# Text: In treating allergic and non-allergic rhinitis, the aqueous suspension of mometasone furoate may be administered intranasally by inserting an appropriate device (such as the pump spray bottle used to deliver Vancenase AQ® Nasal Spray as well as the spray bottle disclosed in the Schering Corporation Industrial Design Deposit DM/026304 registered Jun. 1, 1993) into each nostril. Active drug is then expelled (nasal spray device) or could be nasally inhaled (sniffed) as a powder. Efficacy is generally assessed in a double blind fashion by a reduction in nasal symptoms (e.g., sneezing, itching, congestion, and discharge). Other objective measurements (e.g., nasal peak flow and resistance) can be used as supportive indices of efficacy.
# In a dose ranging safety and efficacy study, the mometasone furoate aqueous nasal spray formulation at doses of 50 mcg/day, 100 mcg/day, 200 mcg/day, 800 mcg/day or placebo was administered to 480 patients with seasonal allergic rhinitis for 4 weeks.
# [2] = Drug metabolism/clinical pharmacology study: absorption and excretion of total radioactivity after ^3H-MF by various routes; type: in vivo, normal healthy male volunteers
# Method: In addition, a single-dose absorption, excretion and metabolism study using 200 mcg of ^3H-mometasone furoate as the nasal spray formulation was conducted in 6 normal male volunteers. When systemic absorption (based on urinary excretion) was compared to an intravenously administered dose of ^3H-mometasone furoate, it was 8%.
# A drug metabolism and clinical pharmacology study was conducted by administering (by various routes) tritium-labeled mometasone furoate (“^3H-MF”) to 6 groups of 6 normal male volunteers in each group. Blood and urine samples were collected for measurement of total drug (including metabolites).
# The objectives of these studies in male volunteers were to determine the absorption, metabolism and excretion of ^3H-labeled mometasone furoate (“^3H-MF”) following administration by oral swallow as a solution and as an aqueous suspension of the monohydrate, by oral inhalation as a suspension from a standard metered dose inhaler (MDI) and from a metered dose inhaler containing a spacer device (Gentlehaler), by nasal inhalation as an aqueous suspension of the mometasone furoate monohydrate from a nasal spray unit and by intravenous injection as a solution.
# Thirty-six (n=6 per treatment group) normal healthy male volunteers between the ages of 19 and 40 yr. (average 29 yr.) having weights in accordance with current actuarial tables (+10%) were enrolled in these single dose studies. All subjects were determined to be in good health by their medical history, physical examinations, clinical and laboratory tests.
# (§1) Plasma, urine, expired air filters, Respirgard and fecal samples were collected and assayed for radioactivity content. The limit of quantitation (LOQ) for plasma radioactivity ranged from 0.103 to 0.138 ng eq/ml., except for the nasal spray treatment where the LOQ was 0.025 ng eq/ml. Selected plasma, urine and fecal samples were analyzed for metabolite profiles.
# Pharmacokinetics—The mean (n=6) plasma concentrations of total radioactivity are illustrated in Summary FIG. 1 and the mean (n=6) pharmacokinetic parameters derived from total plasma radioactivity are presented in Table 2.
# [3] = tested on: cortisol secretion; assay: Multiple dose 28-day study, aqueous nasal spray, cortisol secretion; type: in vivo, normal male volunteers; settings: intranasal 400 or 1600 mcg/day, 28 days
# Text: In a follow-up multiple dose study, 48 normal male volunteers were empaneled in a randomized, third party-blinded, placebo and active-controlled parallel group study. Twelve volunteers in each of four groups received one of the following treatments for 28 days: A) Intranasal aqueous nasal spray suspension formulation of mometasone furoate monohydrate, 400 mcg/day; B) Intranasal aqueous nasal spray suspension formulation of mometasone furoate monohydrate, 1600 mcg/day; C) Intranasal placebo; D) Oral prednisone, 10 mg/day. All treatments were administered as once daily dosing in the morning.
# [4] = HPLC/radio-flow metabolite profiling of plasma, urine and fecal extracts after ^3H-MF; type: in vivo, normal healthy male volunteers
# Text: The substantial minimization of the systemic effect of mometasone furoate administered intranasally or by oral inhalation has been measured by High Performance Liquid Chromatography (HPLC) metabolite profiling of plasma radioactivity of mometasone furoate, its substantially complete (>98%) first-pass metabolism in the liver and by a minimal reduction in cortisol secretion levels.
# as §1
# Selected plasma, urine and fecal extracts were analyzed by high performance liquid chromatography (HPLC) with radio-flow monitoring to determine metabolite profiles. […] Approximately 1.5% of the 3 hr. plasma radioactivity was associated with parent drug indicating extensive first past metabolism and rapid inactivation by the liver. In contrast, following intravenous administration, approximately 39% of the 3 hr. plasma radioactivity was associated with parent drug. Approximately 12% and 33% of the 3 hr. plasma radioactivity was associated with parent drug following administration of the MDI and Gentlehaler, respectively. In general, the plasma concentrations of radioactivity following the nasal and oral suspension routes of administration were too low for metabolite profiling.
# Hydrolysis of plasma and urine was performed with an enzyme preparation containing both β-glucuronidase and aryl sulfatase. These experiments yielded modest changes in the HPLC metabolite profiles that were consistent with the hydrolytic release of conjugated metabolites.
# [5] = tested on: plasma cortisol; assay: Phase I rising single-dose study, aqueous nasal spray suspension, 24-hour plasma cortisol; type: in vivo, healthy male volunteers; settings: intranasal single doses 1000, 2000 and 4000 mcg at 11 pm
# Method: Several Phase I studies have been completed using the aqueous nasal spray suspension formulation of mometasone furoate monohydrate. In a randomized, third party-blinded, placebo-controlled rising single-dose safety and tolerance study, the aqueous nasal spray suspension formulation was administered to eight healthy male volunteers. Doses were administered at 11 pm, and plasma cortisol concentrations were measured during the following 24-hour period.
compound,measurement,setting,value
C[C@@H]1C[C@H]2[C@@H]3CCC4=CC(=O)C=C[C@]4(C)[C@@]3(Cl)[C@@H](O)C[C@]2(C)[C@@]1(OC(=O)c1ccco1)C(=O)CCl [mometasone furoate],efficacy relative to placebo,[1],effective relative to placebo
same,tolerability,[1],well tolerated
same,safety and tolerability,"[2]; all dosage forms, single dose",safe and well tolerated
same,bioavailability,"[2]; male, human, plasma, inhaled or intranasal, 200 ug, nasal spray 200 mcg, single dose, read-out: bioavailability of mometasone furoate",< 1%
same,parent drug which reaches the bloodstream from the gastrointestinal tract,[2]; swallowed as oral suspension or by oral or nasal inhalation,less than 1%
same,cortisol secretion compared to placebo,[3],Neither of the 2 doses of the mometasone furoate aqueous nasal spray formulation were associated with any changes in cortisol secretion
same,tolerability,[3],well tolerated
same,extent of metabolism,[4]; all routes of administration,extensively metabolized
same,first-pass metabolism in the liver,[4]; in vivo,> 98%
same,detection of parent drug in plasma by metabolite profiling,"[4]; intravenous injection or oral solution, not after oral or nasal suspensions",detectable in plasma by metabolite profiling
same,bioavailability,"[4]; male, human, plasma, 1.03 mg/Subject, oral solution, extensive first pass metabolism, read-out: absolute bioavailability of unchanged mometasone furoate",< 1%
same,effect on 24-hour area under the curve plasma cortisol profile (AUC 0-24) compared to placebo,[5],did not significantly affect
